Experimental data taken from publication PMC8313270 (Microbial Biotechnology, 2021).

Tested on: StdA-His
Experiment: toxoflavin degradation assay, Lineweaver-Burk plot
Assay type: biochemical, Sphingomonas adhaesiva
Conditions: 50 mM sodium phosphate pH 8.0, 5 mM DTT, 28°C, no metal added

## Cn1ncnc2c(=O)n(C)c(=O)nc1-2 [toxoflavin, 1,6‐dimethylpyrimido[5,4‐e]‐1,2,4‐triazine‐5,7(1H,6H) dione]
  Km: 65 µM
